Test results published in ChEMBL document CHEMBL1124274, “Synthesis, pharmacological action, and receptor binding affinity of the enantiomeric 1-(1-phenyl-3-methylcyclohexyl)piperidines” (J Med Chem, 1988).

Tests used:
[1] = molecular target: T1, Glutamate receptor ionotropic, NMDA 2C (Rattus norvegicus, UniProt Q00961); experiment: Binding affinity against phencyclidine receptor was determined by the displacement of [3H]TCP of whole rat brain minus cerebellum.; format: tissue-based
[2] = molecular target: T1, Glutamate receptor ionotropic, NMDA 2C; experiment: Inhibition activity against binding of phencyclidine receptor was determined by the displacement of [3H]-TCP of whole rat brain minus cerebellum.; format: tissue-based

T1 sequence (Q00961 whole entry): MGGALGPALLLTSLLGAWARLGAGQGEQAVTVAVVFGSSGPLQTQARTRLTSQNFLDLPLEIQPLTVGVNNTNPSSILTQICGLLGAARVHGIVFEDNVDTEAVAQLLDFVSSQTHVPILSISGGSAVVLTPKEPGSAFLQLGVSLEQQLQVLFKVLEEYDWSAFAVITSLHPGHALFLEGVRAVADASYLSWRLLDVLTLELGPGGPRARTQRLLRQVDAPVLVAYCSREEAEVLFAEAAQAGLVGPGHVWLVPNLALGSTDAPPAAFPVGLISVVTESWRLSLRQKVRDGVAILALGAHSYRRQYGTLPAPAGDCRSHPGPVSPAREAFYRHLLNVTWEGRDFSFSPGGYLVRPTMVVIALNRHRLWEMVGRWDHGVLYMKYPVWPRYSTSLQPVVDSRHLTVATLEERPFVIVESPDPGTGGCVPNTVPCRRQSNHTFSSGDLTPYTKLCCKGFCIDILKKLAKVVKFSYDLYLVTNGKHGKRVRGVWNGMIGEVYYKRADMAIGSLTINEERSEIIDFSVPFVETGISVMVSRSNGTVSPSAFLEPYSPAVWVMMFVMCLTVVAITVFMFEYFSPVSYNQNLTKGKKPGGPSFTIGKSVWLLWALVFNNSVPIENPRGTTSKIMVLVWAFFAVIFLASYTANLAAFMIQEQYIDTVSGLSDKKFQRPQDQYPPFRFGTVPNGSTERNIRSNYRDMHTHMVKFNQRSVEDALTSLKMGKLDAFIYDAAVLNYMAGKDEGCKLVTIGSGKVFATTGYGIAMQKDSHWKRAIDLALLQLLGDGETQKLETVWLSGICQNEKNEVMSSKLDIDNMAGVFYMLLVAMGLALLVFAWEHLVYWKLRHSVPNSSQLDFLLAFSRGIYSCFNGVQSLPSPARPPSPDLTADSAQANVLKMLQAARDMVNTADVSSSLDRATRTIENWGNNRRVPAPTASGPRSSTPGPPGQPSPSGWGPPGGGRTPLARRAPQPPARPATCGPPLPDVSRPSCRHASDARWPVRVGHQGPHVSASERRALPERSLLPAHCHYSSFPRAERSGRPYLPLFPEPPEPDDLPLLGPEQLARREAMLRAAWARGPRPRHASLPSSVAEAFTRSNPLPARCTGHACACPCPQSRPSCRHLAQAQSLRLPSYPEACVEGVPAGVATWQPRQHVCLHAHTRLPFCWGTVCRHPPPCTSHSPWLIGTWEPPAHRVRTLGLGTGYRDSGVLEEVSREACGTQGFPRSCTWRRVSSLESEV

Structure (SMILES)	Ki [1] [nM]	IC50 [2] [nM]
C[C@H]1CCC[C@@](c2ccccc2)(N2CCCCC2)C1	3300	
CC1CCCN(C2(c3ccccc3)CCCCC2)C1 (stereo in doubt; (-))	2150	
CC1CCCN(C2(c3ccccc3)CCCCC2)C1 (stereo in doubt; (+))	60	
C[C@@H]1CCC[C@@](c2ccccc2)(N2CCCCC2)C1	6800	
c1ccc(C2(N3CCCCC3)CCCCC2)cc1 [PHENCYCLIDINE]	60	600
C[C@@H]1CCC[C@](c2ccccc2)(N2CCCCC2)C1	820	
C[C@H]1CCC[C@](c2ccccc2)(N2CCCCC2)C1	170	
